Values of other authors in article PMC8510358, “Common Shortcomings in Study on Radiopharmaceutical Design Research: A Case Study of ^99mTc-Labelled Methotrexate” (Molecules, 2021).

Test system: folate receptors
Set-up: method as in PMID 23851396
Details: in comparison to folic acid (FA); ref [3]

affinity to folate receptors: noticeably lower
Compound: CN(Cc1cnc2nc(N)nc(N)c2n1)c1ccc(C(=O)N[C@@H](CCC(=O)O)C(=O)O)cc1 [MTX, Methotrexate]
